This note sets out measurements from paper PMC8217011, “Natural brominated phenoxyphenols kill persistent and biofilm-incorporated cells of MRSA and other pathogenic bacteria” (Applied Microbiology and Biotechnology, 2020).

≈ marks a conversion by molar mass, not a printed value. Where “and” joins values, the source holds several entries; their conditions need not be identical. Equal entries are not always repeated.

The test system of one test is preformed MRSA biofilms. Kind of test: Biofilm integrity (crystal violet staining, Alcian blue fluorescence microscopy). Format: cell-based, Staphylococcus aureus. The protocol:
Viability was measured as described above utilizing the Resazurin reduction assay. Biofilm formation was measured using crystal violet staining as described elsewhere (Christensen et al. [1985]; Stepanovic et al. [2007]). Briefly, biofilms were washed three times with PBS and allowed to air dry before 0.1% (v/v) crystal violet solution (Waldeck GmbH & Co., Münster, Germany) was added to each well. The biofilms were stained for 15 min at room temperature (RT). Afterwards, the plates were washed three times again with PBS, and 30% acetic acid was added for 30 min at RT to solubilise the dye. Finally, 100 μL was transferred to a fresh 96-well plate to measure absorption at 600 nm with a plate reader.
Biofilms were pre-grown as described above. Alcian blue staining was performed to stain the EPS. A 1% Alcian blue staining solution was prepared in 3% glacial acetic acid. Staining solution was added to the biofilm in sufficient amount to cover the whole biofilm and incubated for 30 min at RT. Next, the biofilm was washed twice with PBS, and 200 μL 10% formalin solution was added. Fluorescence microscopy was performed using a Nikon Eclipse TS100 fluorescence microscope.

The subject of test [1] is persisters of P. aeruginosa POA1. The experiment in a line: Antipersister activity assay (Resazurin). The format is cell-based. The following applies: Pseudomonas aeruginosa, 24 h, read-out: MIC against persisters. (Resazurin is reduced to fluorescent resorufin, in cell work by metabolically active cells.)
Test [2] deals with S. aureus mutant M6 (parental strain Mu50). Kind of test: MIC of spontaneously resistant mutant. The format is cell-based. To be noted: Staphylococcus aureus. The protocol:
(§1) The minimal inhibitory concentration (MIC) has been determined according to the CSLI guidelines (CLSI [2012]). Briefly, in a sterile polystyrene U-bottom 96-well plate, a 2-fold serial dilution ranging from 100 to 0.78 μM of testing compounds has been prepared in 50 μL MHB. A freshly inoculated S. aureus culture was grown until OD600 nm of approx. 0.6 and diluted to 10^6 CFU/mL in MHB. Finally, 50 μL of the latter cell suspension was added to each well and then incubated statically for 18–24 h at 37 °C. MIC was determined using BacTiterGlo ATP assay (Promega, Madison, WI, USA) and Tecan Infinite F200 Pro (Tecan, Männedorf, Switzerland). Moxifloxacin and DMSO were used as positive and negative control, respectively. Sublethal concentrations of colistin (0.1 μM) were used in some experiments to increase the permeability of the gram-negative cell envelope for compound testing. For E. cloacae, a broth microdilution assay was performed using a serial 2-fold dilution in 96-well flat-bottomed plates (Falcon, BD Bioscience, Heidelberg) of both PPs in broth LB medium (Roth, Karlsruhe) at a concentration range of 50–0.024 μM.
(§2) Spontaneous resistant mutants have been generated with 2-bromo-PP and 3-bromo-PP to further investigate the mechanism of antibacterial action and resistance. Since isolation of spontaneous resistant mutants in one step was not successful on solid media containing 2-bromo-PP or 3-bromo-PP (i.e. resistance frequency < 10^−7 at 5-fold MIC), enrichment was done by passaging bacteria daily in liquid media containing increasing sublethal concentrations of PPs. […] Moreover, we observed cross-resistance between PPs since 2-bromo-PP-resistant mutants were also resistant against 3-bromo-PP and vice versa (Fig. 4a; Table 2).

Test [3] concerns S. aureus mutant M2 (parental strain ATCC 25923). The experiment in a line: MIC of spontaneously resistant mutant. Format: cell-based. The following applies: Staphylococcus aureus, ATCC25923. The protocol:
as §1, §2

The subject of test [4] is S. aureus mutant M3 (parental strain ATCC 25923). Kind of test: MIC of spontaneously resistant mutant. Format: cell-based. The following applies: Staphylococcus aureus, ATCC25923. The procedure: as §1, §2
Test [5] deals with S. aureus mutant M5 (parental strain Mu50). The experiment in a line: MIC of spontaneously resistant mutant. The format is cell-based. To be noted: Staphylococcus aureus. The protocol: as §1, §2
A further test relates to persisters of MRSA Mu50. Kind of test: Antipersister activity assay (Resazurin). The format is cell-based. The following applies: Staphylococcus aureus, 24 h, read-out: MIC against persisters. The procedure:
(§3) Cultures were, if not stated differently, incubated at 37 °C with aeration and shaking (150 rpm) in Mueller-Hinton broth (MHB). Bacteria were freshly incubated at the next morning from an overnight pre-culture for actively growing bacteria to an OD600 nm of approx. 0.6. To ensure persistent growth form, the bacteria were grown overnight until a density at OD600 nm > 5.0 was obtained. For biofilm growth, some colonies from a Mueller-Hinton agar (MHA) plate were picked and resuspended in MHB. Cell density has been adjusted to OD600 nm = 0.8, and cells were sown into a flat-bottom 96-well plate to be incubated statically at 37 °C with aeration. Studies were mainly performed with S. aureus Mu50.
Sterile U-bottom 96-well polystyrene plates were used for the assay. The wells were prepared with a final volume of 50 μL phosphate-buffered saline (PBS, NaCl = 137 mM, KCl = 2.7 mM, NaHPO4 = 10 mM, KH2PO4 = 1.8 mM, pH = 7.4) containing a 2-fold serial dilution of compounds ranging from 100 to 0.78 μM. S. aureus was cultivated as described above and washed three times with PBS before adjusting the cell density to approx. 2 × 10^7 cells/mL (OD600 nm = 0.08). […]
Viability of bacterial cells was estimated employing the Resazurin dye reduction assay. […] Finally, the fluorescence was quantified in a plate reader with 535-nm excision and 590-nm emission wavelengths. […]

A further test concerns S. aureus Mu50. Kind of test: MIC determination (microbroth dilution). The format is cell-based. The following applies: Staphylococcus aureus. The procedure: as §3, §1
(In broth dilution the organism is exposed to a series of concentrations in liquid medium.)

The test system of test [6] is Bacillus subtilis 168 trp C2. The experiment in a line: MIC determination (microbroth dilution). Format: cell-based. To be noted: 168TRPC2. The protocol: as §3, §1
Another test deals with E. faecium ATCC 700221. The experiment in a line: MIC determination (microbroth dilution). Format: cell-based. The following applies: Enterococcus faecium, ATCC700221. The protocol:
as §3, §1

Test [7] has as its system Enterococcus faecium ATCC 35667. The experiment in a line: MIC determination (microbroth dilution). The format is cell-based. The following applies: ATCC35667. The procedure: as §3, §1
The subject of another test is A. baumannii ATCC 1605. The experiment in a line: MIC determination (microbroth dilution). Format: cell-based. The following applies: Acinetobacter baumannii, ATCC1605, multidrug-resistant strain. The procedure:
as §3, §1

A further test relates to E. faecalis ATCC 29212. The experiment in a line: MIC determination (microbroth dilution). Format: cell-based. The following applies: Enterococcus faecalis, ATCC29212. The protocol:
as §3, §1

Test [8] concerns Escherichia coli ATCC 25922. Kind of test: MIC determination (microbroth dilution). Format: cell-based. The following applies: Escherichia coli. The protocol:
as §3, §1

In test [9] the test system is Acinetobacter baumannii ATCC 747. The experiment in a line: MIC determination (microbroth dilution). The format is cell-based. The following applies: Acinetobacter baumannii, ATCC747. The protocol:
as §3, §1

Another test concerns S. aureus COL. Kind of test: MIC determination (microbroth dilution). Format: cell-based. To be noted: Staphylococcus aureus. The protocol:
as §3, §1

`Oc1c(Br)cc(Br)cc1Oc1ccc(Br)cc1Br` [2-bromo-PP, 4,6-dibromo-2-(2′,4′-dibromophenoxy)phenol]: in the test on preformed MRSA biofilms, the “biofilm integrity / dispersal” value is listed as “Neither 2-bromo-PP (light blue triangle) nor 3-bromo-PP (blue inverted triangle) disperse biofilms”. Further, the MIC (in [1]; in the test on persisters of MRSA Mu50) was 12.5 µM (≈ 6.27 µg/mL) throughout. Further, the MIC90 (usually the lowest concentration that inhibits either 90% of growth or 90% of the strains tested, depending on the study) is 0.78 µM and 0.39 µg/mL in [2]; 1.56 µM and 0.78 µg/mL in test [3]; 0.78 µM and 0.39 µg/mL in [4]; 1.56 µM and 0.78 µg/mL in [5]; 0.19 µM and 0.1 µg/mL with S. aureus Mu50; 0.39 µM and 0.2 µg/mL in test [6]. In addition, the MIC90 in the test with E. faecium ATCC 700221 was 0.78 µM and 0.39 µg/mL; in test [7], 0.78 µM and 0.39 µg/mL; in the test on A. baumannii ATCC 1605 (+ 0.1 μM colistin), 0.39 µM and 0.2 µg/mL; in the test with A. baumannii ATCC 1605 (without colistin), 0.78 µM and 0.39 µg/mL; in the test on E. faecalis ATCC 29212, 0.78 µM and 0.39 µg/mL; in [8] (ATCC25922, + 0.1 μM colistin), 0.04 µM and 0.02 µg/mL. The MIC90 in [8] (ATCC25922, without colistin) was 3.12 µM and 1.57 µg/mL; in test [9] it was 0.78 µM and 0.39 µg/mL; in the test with S. aureus COL it was 0.78 µM and 0.39 µg/mL.
As to `Oc1c(Br)cc(Br)c(Br)c1Oc1ccc(Br)cc1Br` [3-bromo-PP, 3,4,6-tribromo-2-(2′,4′-dibromophenoxy)phenol], in the test on preformed MRSA biofilms, the “biofilm integrity / dispersal” value is recorded as “Neither 2-bromo-PP (light blue triangle) nor 3-bromo-PP (blue inverted triangle) disperse biofilms”. Also, the minimal inhibitory concentration (MIC) (commonly the lowest concentration found to suppress growth) in [1] was 50 µM (≈ 29 µg/mL); in the test with persisters of MRSA Mu50, 6.25 µM (≈ 3.63 µg/mL). Also, the MIC90 was 3.12 µM and 1.81 µg/mL in test [2]; 3.12 µM and 1.81 µg/mL in test [3]; 6.25 µM and 3.63 µg/mL in test [4]; 3.12 µM and 1.81 µg/mL in test [5]; 0.1 µM and 0.06 µg/mL in the test with S. aureus Mu50; 0.39 µM and 0.23 µg/mL in test [6]. Also, the MIC90 in the test with E. faecium ATCC 700221 was 0.78 µM and 0.45 µg/mL; in test [7], 0.39 µM and 0.23 µg/mL; in the test with A. baumannii ATCC 1605 (+ 0.1 μM colistin) it was 0.78 µM and 0.45 µg/mL; against A. baumannii ATCC 1605 (without colistin), 1.56 µM and 0.91 µg/mL; in the test with E. faecalis ATCC 29212 it was 0.78 µM and 0.45 µg/mL; in test [8] (ATCC25922, + 0.1 μM colistin), 0.04 µM and 0.02 µg/mL. Moreover, the MIC90 in test [8] (ATCC25922, without colistin) was 6.25 µM and 3.63 µg/mL; in [9], 3.12 µM and 1.81 µg/mL; with S. aureus COL, 0.78 µM and 0.45 µg/mL.
